The text below walks through data of patent publication US20230286946A1, “DIFLUOROMETHYL-PYRIDIN-2-YL TRIAZOLES” (Boehringer Ingelheim International GmbH, priority 2020, published 2023).

pKi: −log10 of the molar value.

Series [1] addresses T1, human GABAA α5β3γ2s receptor (Homo sapiens, UniProt P18507+P31644).
T1 sequence (P18507 1-475): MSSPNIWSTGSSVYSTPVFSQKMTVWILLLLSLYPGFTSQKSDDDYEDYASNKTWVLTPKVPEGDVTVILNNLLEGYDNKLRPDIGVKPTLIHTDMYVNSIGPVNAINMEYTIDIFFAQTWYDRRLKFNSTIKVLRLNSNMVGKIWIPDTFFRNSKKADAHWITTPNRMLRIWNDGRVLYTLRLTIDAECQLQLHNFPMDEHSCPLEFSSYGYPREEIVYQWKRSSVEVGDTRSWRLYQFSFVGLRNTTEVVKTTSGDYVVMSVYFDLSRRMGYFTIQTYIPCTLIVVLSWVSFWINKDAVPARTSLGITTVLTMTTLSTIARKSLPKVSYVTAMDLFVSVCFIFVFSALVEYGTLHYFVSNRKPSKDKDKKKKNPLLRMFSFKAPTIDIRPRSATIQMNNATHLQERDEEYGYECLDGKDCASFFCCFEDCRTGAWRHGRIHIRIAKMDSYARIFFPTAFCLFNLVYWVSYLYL
T1 sequence (P31644 1-462): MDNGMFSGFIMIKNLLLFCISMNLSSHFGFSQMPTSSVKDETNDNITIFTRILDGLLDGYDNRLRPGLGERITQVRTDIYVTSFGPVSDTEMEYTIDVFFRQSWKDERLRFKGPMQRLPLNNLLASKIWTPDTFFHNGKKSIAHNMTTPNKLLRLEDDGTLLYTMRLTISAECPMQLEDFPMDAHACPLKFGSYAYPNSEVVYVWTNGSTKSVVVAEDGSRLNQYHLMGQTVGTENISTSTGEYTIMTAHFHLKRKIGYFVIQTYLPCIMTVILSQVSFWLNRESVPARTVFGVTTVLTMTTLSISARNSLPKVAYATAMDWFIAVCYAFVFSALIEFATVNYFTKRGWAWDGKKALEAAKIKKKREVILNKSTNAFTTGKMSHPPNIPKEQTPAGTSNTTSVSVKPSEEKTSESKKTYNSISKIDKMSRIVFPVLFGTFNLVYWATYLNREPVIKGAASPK
Put plainly: Assay A: in vitro inhibition of 3H-flumazenil binding, HEK cells expressing the human GABAA α5β3γ2s receptor. As to conditions: read-out: Assay A: GABAA α 5 β 3 γ 2s Ki. On the procedure:
Cell Cultures and Membrane Preparation
HEK-293 cell lines with stable expression of recombinant human GABAA α5ß3 γ2s receptors (plasmid H46/E9/B10) are seeded in T175 polystyrene flasks or roller bottles (1700 cm^2, Fisher Scientific CCI-431191), and cultured (37° C., 5% CO2) in Dulbecco's Modified Eagle Medium (DMEM) with GlutaMAX™ supplemented with 10% fetal bovine serum and one or both of the following antibiotics: hygromycin B ([…]; γ2 subunit) or G418 (0.5 mg/ml; […]).
When the cultures reach confluency, the DMEM is removed and the cells are washed (10 ml for T175 flasks; 50 ml for roller bottles) once in Dulbecco's Phosphate Buffered Saline (DPBS). Following addition of DPBS to the cultures (10 ml for T175 flasks; 100 ml for roller bottles) for approximately 5 min cells are easily detached from the surface by shaking or tapping the flask gently. The cell suspension is transferred to Falcon tubes and centrifuged at 23,500×g for 10 min at 2° C. The pellet is washed once in 15 ml Tris-citrate buffer (50 mM, pH 7.1) using an Ultra-Turrax homogenizer and centrifuged at 2° C. for 10 min at 27,000×g. The washed pellet is re-suspended in 15 ml Tris-citrate buffer and frozen at −80° C. until the day of the binding experiment.
On the day of the experiment the cell membrane preparation is thawed and centrifuged at 2° C. for 10 min at 27,000×g. The pellet is re-suspended, using an Ultra-Turrax homogenizer in Tris-citrate buffer, to 15-50 µg protein per assay and then used for binding assays.
Non-specific binding is determined using clonazepam ([…]).
All dilutions of test compounds and incubation of assay are performed in glass vials/96-vial plates. […] Compounds are dissolved in 100% DMSO (10 mM stock), diluted in 48% ethanol-water, and tested in triplicate in serial 1:3 or 1:10 dilutions. When screening large numbers of compounds only one concentration of each compound is tested in single wells. Reference compounds are not included routinely, but for each experiment performed total and nonspecific binding is compared to data obtained during validation of the assay.
Binding is either terminated by rapid filtration onto
1) Whatman GF/C glass fibre filters using a Brandel Cell harvester, followed by 5 washes with 1 ml ice-cold buffer or onto 2) UniFilter GF/C glass fibre filter plates using a Tomtec cell harvester, followed by washing with approximately 5 ml ice-cold buffer.
The amount of radioactivity on the filters is determined by conventional liquid scintillation counting using a
1) Tri-Garb™ counter (PerkinElmer Life and Analytical Sciences) for separate large filters or
2) Topcount™ counter (PerkinElmer Life and Analytical Sciences) for 96-well filter plates.
Specific binding is total binding minus non-specific binding.
The IC50 value for a test compound is determined based on the equation: […]
where B is the binding in percentage of total specific binding; C is the concentration of test compound; and n is the Hill coefficient. For screening purposes n is set to 1. The IC50 value is calculated from the concentration response curves by the non-linear regression method using the curve-fitting program GraphPad Prism.
The Ki value for a test compound can be calculated from the IC50 value using the equation by Cheng and Prusoff: […]

Series [2] is described as follows: Metabolic stability in human liver microsomes (Human MST). In kind it is in vitro ADME. Conditions: pH 7.6, pooled human liver microsomes, 37° C., read-out: Human MST t½. The procedure: Assessment of Metabolic Stability in Human Liver Microsomes (Human MST) The metabolic stability of the compounds according to the invention may be investigated as follows: The metabolic degradation of the test compound is assayed at 37° C. with pooled human liver microsomes. The final incubation volume of 100 μL per time point contains TRIS buffer pH 7.6 at room temperature (0.1 M), MgCl2 (5 mM), microsomal protein (1 mg/mL) and the test compound at a final concentration of 1 μM. Following a short pre-incubation period at 37° C., the reactions are initiated by addition of beta-nicotinamide adenine dinucleotide phosphate, reduced form (NADPH, 1 mM), and terminated by transferring an aliquot into solvent after different time points. After centrifugation (10000 g, 5 min), an aliquot of the supernatant is assayed by LCMS/MS for the amount of parent compound. The half-life (t1/2) is determined by the slope of the semi-logarithmic plot of the concentration-time profile.

`Cc1nnn(-c2ccc(C(F)F)cn2)c1COc1ccc(-c2cnn(C)c2C)nn1` [Example 9]: in series [1], the pKi (usually the Ki on a negative log10 scale, so that one unit is a factor of ten) was 7.89. The half-life at 1 μM in series [2] was determined as 1.68 h.
